Experimental data: PMC10157890, “Lysine Deacetylase Substrate Selectivity: Distinct Interaction Surfaces Drive Positive and Negative Selection for Residues Following Acetyllysine” (Biochemistry, 2023)

Key:
Full-length human KDAC8 = target: T1, Full-length human KDAC8 (Homo sapiens, UniProt Q9BY41); assay: Activity of KDAC8 with putative substrate peptides (verification of substrate preferences); assay type: biochemical; details: endpoint, 100 μM peptide, buffer also containing 100 mM KCl; for specific activity, KDAC8 with putative substrates (no activity above limit): limit of reliable detection 0.0004 s^–1; for specific activity, KDAC8 with putative substrates: 50–200 nM KDAC, 25 °C, pH 7.6, 15–60 min, average ± SD, SD
T1 construct: Full-length human KDAC8 (UniProtKB Q9BY41) was recombinantly expressed fused to a C-terminal His6 tag; TEV protease cleavage site (C); His6 (C); made in house; host or cells: Escherichia coli
T1 sequence (Q9BY41 1-377): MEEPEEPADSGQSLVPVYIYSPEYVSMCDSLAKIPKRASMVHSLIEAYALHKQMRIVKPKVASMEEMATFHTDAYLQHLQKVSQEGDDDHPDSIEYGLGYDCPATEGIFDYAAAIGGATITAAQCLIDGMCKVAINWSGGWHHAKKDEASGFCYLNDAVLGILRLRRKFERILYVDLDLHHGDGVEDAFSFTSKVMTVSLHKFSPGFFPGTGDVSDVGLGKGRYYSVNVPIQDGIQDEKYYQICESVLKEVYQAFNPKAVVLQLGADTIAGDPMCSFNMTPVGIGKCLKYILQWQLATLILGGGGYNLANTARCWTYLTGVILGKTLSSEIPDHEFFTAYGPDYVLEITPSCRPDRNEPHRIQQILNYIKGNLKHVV
Protocol: (§1) Peptide substrates were synthesized to >95% purity (GenScript) with N-terminal acetylation and C-terminal amidation. For endpoint experiments, 100 μM peptide substrates were reacted with 50–200 nM KDAC at 25 °C at pH 7.6 for 15–60 min. Deacetylation was measured using a fluorescamine-based assay that was previously described in detail.[18] Reported raw activity for each enzyme–substrate pair is the average and standard deviation for n ≥ 4 unless otherwise noted. Normalized activity was calculated by defining the activity of each KDAC with the FRK^acWR peptide equal to 1. Statistical significance was determined by calculating p values using two-tailed t-tests, assuming similar variance. The significance threshold was set at p ≤ 0.01 with the Bonferroni correction for multiple testing. Kinetic parameters were determined for a subset of enzyme–substrate pairs. In these experiments, 50–200 nM KDAC was reacted with ≥5 substrate concentrations from 10 to 2500 nM and ≥3 timepoints at intervals of 3–20 min were collected for each substrate concentration. Deacetylation was measured using the same method as the endpoint experiments, and KM and kcat were calculated from the observed activity of each reaction as previously described.[18] Activity assays with peptides for verification of substrate preferences were performed as for endpoint experiments, except in a buffer also containing 100 mM KCl. Statistical analysis of the correlation of the presence of particular substrate residues with activity was performed using Fisher’s exact test with a significance threshold of p ≤ 0.05.
We performed a similar experiment for KDAC8, this time using substrates that have been described as potential KDAC8 substrates from cell-based studies or which contained residues in the +1 and/or +2 positions that were identified to enhance activity of KDAC8. […] In addition, we also considered phenylalanine, as we did for KDAC6. Here, we looked at the correlation between peptides having any of these features and activity. While the result was less striking than for KDAC6, there was still a positive correlation between the presence of the identified residues and activity (Table 3; p = 0.048). Although we have identified only a portion of the interactions that likely contribute to substrate selectivity for these enzymes, these interactions correlate with a statistically significant increase in activity with peptides from potential biological substrates in an unbiased background of residues in other positions.

full-length human KDAC6 = target: T2, full-length human KDAC6 (Homo sapiens, UniProt Q9UBN7); assay: Activity of KDAC6 with putative substrate peptides (verification of substrate preferences); assay type: biochemical; details: endpoint, 100 μM peptide, buffer also containing 100 mM KCl; for specific activity, KDAC6 with putative substrates: 50–200 nM KDAC, 25 °C, pH 7.6, 15–60 min, average ± SD, SD
T2 construct: A pFastbac1 construct containing full-length human KDAC6 (UniProtKB Q9UBN7) with a C-terminal His6 tag; His6 (C); made in house; host or cells: ExpiSf9 insect cells (baculovirus)
T2 sequence (Q9UBN7 1-1215): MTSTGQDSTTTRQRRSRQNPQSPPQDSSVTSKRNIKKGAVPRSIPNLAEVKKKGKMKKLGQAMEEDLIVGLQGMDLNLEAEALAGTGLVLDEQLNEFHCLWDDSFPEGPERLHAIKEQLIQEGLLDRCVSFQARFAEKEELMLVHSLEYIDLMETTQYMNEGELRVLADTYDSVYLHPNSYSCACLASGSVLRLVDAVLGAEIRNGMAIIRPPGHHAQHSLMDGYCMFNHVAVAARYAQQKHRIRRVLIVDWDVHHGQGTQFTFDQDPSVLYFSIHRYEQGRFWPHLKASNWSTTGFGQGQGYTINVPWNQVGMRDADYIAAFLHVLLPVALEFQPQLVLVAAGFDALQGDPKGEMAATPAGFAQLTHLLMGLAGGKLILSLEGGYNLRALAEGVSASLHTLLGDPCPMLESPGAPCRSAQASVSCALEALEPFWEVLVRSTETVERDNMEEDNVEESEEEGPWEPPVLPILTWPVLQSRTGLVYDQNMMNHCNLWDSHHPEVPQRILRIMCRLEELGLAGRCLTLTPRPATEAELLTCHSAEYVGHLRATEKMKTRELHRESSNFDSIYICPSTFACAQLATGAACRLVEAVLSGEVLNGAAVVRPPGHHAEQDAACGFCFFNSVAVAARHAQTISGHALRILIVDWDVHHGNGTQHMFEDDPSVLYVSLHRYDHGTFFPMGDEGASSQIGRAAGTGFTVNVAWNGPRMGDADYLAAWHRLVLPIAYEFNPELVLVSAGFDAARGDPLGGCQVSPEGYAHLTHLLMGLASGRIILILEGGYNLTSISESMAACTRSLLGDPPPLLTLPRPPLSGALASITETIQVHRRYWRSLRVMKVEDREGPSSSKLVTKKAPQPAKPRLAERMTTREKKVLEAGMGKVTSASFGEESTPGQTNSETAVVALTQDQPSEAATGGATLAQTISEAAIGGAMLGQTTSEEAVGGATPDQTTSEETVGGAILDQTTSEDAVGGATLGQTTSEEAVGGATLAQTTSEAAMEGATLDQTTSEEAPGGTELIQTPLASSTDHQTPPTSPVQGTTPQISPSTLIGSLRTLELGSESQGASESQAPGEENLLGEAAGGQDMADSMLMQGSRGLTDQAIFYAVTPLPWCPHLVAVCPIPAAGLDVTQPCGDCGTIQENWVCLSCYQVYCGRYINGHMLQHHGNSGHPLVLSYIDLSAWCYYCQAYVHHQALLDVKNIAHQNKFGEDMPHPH
Protocol: as §1
In contrast with the peptides tested thus far, which were all derivatives of a single substrate, these panels consisted of peptides derived from human proteins in which the lysine residue is known to be acetylated in cells.[3],[5],[42],[50]−[72] For each enzyme, peptides were included either because they contained an acetyllysine that has been identified as a putative substrate of the KDAC from published cellular studies and/or because the peptide contained a residue that appeared to drive KDAC activity in our analysis. For KDAC6, we observed that of the set of peptides that were tested, six contained tryptophan or tyrosine directly after the acetyllysine. Remarkably, all of these peptides appeared in the top seven most reactive substrates tested (Table 2). Assuming that phenylalanine would behave similarly to tryptophan and tyrosine, we determined that there was a statistically significant correlation between whether or not a peptide was deacetylated by KDAC6 and the presence of tyrosine, tryptophan, or phenylalanine in the +1 position (p = 0.011). […] Thus, our conclusion that the presence of these aromatic residues in the +1 position relative to the acetyllysine is a major factor promoting KDAC6 activity has predictive utility and provides some understanding of the underlying mechanistic basis.

Row | Substance | specific activity, KDAC8 with putative substrates (no activity above limit) (Full-length human KDAC8) | specific activity, KDAC6 with putative substrates (full-length human KDAC6) [s^–1] | specific activity, KDAC8 with putative substrates (Full-length human KDAC8) [s^–1] | specific activity, KDAC6 with putative substrates (no activity above limit) (full-length human KDAC6; limit of reliable detection 0.0013 s^–1)
1 | LSGK^acEIN [acetyllysine peptide from serine/arginine-rich splicing factor 5 (Q13243)] | – (– indicates no activity above the limit of reliable detection (0.0004 s^–1)) | 0.024 ± 0.005 |  | 
2 | AFGK^acYCR |  | 0.20 ± 0.09 | 0.0029 ± 0.0004 | 
3 | GTAK^acSVT [acetyllysine peptide from cellular tumor antigen p53 (P04637)] | – (– indicates no activity above the limit of reliable detection (0.0004 s^–1)) |  |  | – (– indicates no activity above the limit of reliable detection (0.0013 s^–1))
4 | SDMK^acHWP [acetyllysine peptide from heat shock 70 kDa protein 1A/1B (P0DMV8/P0DMV9)] | – (– indicates no activity above the limit of reliable detection (0.0004 s^–1)) | 0.013 ± 0.009 |  | 
5 | GVGK^acYIN [acetyllysine peptide from RING-type E3 ubiquitin-protein ligase PPIL2 (Q13356)] | – (– indicates no activity above the limit of reliable detection (0.0004 s^–1)) | 0.055 ± 0.024 |  | 
6 | TGNK^acYVP [acetyllysine peptide from tubulin β-3 chain (Q13509)] |  | 0.10 ± 0.04 | 0.0011 ± 0.0006 | 
7 | GRAK^acYWL [acetyllysine peptide from E3 SUMO-protein ligase RanBP2 (P49792)] |  | 0.100 ± 0.009 | 0.007 ± 0.003 | 
8 | QLSK^acWP [acetyllysine peptide from forkhead box protein O3 (O43524)] |  | 0.14 ± 0.03 | 0.020 ± 0.006 | 
9 | SHLK^acAHL [acetyllysine peptide from transcription factor Sp7 (Q8TDD2)] | – (– indicates no activity above the limit of reliable detection (0.0004 s^–1)) | 0.024 ± 0.013 |  | 
